Measurements taken from patent publication US10221392B2, “Generation of pancreatic endoderm from pluripotent stem cells using small molecules” (Novo Nordisk A/S, priority 2012, dated 2019).

Legend:
Type in all cases: cell-based, human
[1] = system: NKX6.1/PDX1 double positive cells; assay: NKX6.1/PDX1 library screen, early phase (compounds on top of bFGF based PE media, first seven days); conditions: concentration at which the fraction of NKX6.1/PDX1 double positive cells was enhanced more than 200% compared the PE media
Description: Human embryonic stem (hES) cells line SA121 and human induced pluripotent stem cells (hiPSC) chIPS4 (Cellectis) were grown in DEF-CS culture media (Cellectis) in T75 culture flasks.
After 24 hours the cells were washed with RPMI1640 and treated with 100 ng/ml Activin A (Peprotech #120-14E) in RPMI1640. […] Cells were maintained at 37° C. and 5% CO2 in a humidified incubator during the differentiation.
The DE cells were seeded at 200 000/cm^2 in 96 well optical plates (BD Bioscience), and PE differentiation using screening compounds was initiated the following day.
Cells were washed three times with PBS. […] Cells were washed five times and left in 200 μL PBS for imaging.
Imaging was performed using the InCell Analyzer 2000 (GE Healthcare). 4 fields per well with 10× objective were captured. The total cell number based in the DAPI counterstaining and the number of NKX6.1/PDX1 double positive cells was determined using InCell Developer Toolbox 1.8 (GE Healthcare). The fraction of NKX6.1/PDX1 double positive cells was normalized to the benchmark on each plate and the % effect was calculated. Values above 200% effect were categorized as hits.
The compounds within the bioactive library were tested at 1 uM and 0.1 uM. Compounds from the other libraries were tested at 10 uM and 1 uM. In a second candidate based screening approach, small molecules that target the main signalling pathways involved in pancreas development were included.
The library PE screening approach was divided into an early and a late phase (FIG. 1).
In the early phase, compounds were tested on top of the PE media for the first seven days of PE differentiation, and then the differentiation was continued for additional six days using PE media without compounds.
The screen was divided into an early and a late phase (FIG. 1). In the early phase, compounds were tested on top of the PE media for the first seven days of PE differentiation, and then continued for additional six days using PE media without compounds. In the late phase, DE cells were differentiated in the PE media for the first seven days. In the following six days compounds were tested on top of the PE media. Twelve positive control wells (PE media) and 12 negative control wells (PE media without bFGF) were included in each 96 well plate. Media change was performed daily.

[2] = system: NKX6.1/PDX1 double positive cells; assay: Candidate based PE screen 2 (after 4 days hit compound of screen 1, compounds in basal medium for last 10 days); conditions: cells first exposed to hit compound from screen 1 for 4 days, compounds added for last 10 days; FIG. 5
Description: Pluripotent stem (PS) cells were differentiated into definitive endoderm according to DE protocol (See general methods) and seeded in 96 well plates for screening. The pancreatic endoderm screen was divided into two parts. In screen 1, compounds were added to a basal medium (RPMI1640+0.1% PEST+12% KOSR) the first eight days of PE differentiation. […] In screen 2, cells were first differentiated for 4 days with the hit compounds from screen 1, then screening compounds were added the last 10 days to basal medium.

[3] = system: NKX6.1/PDX1 double positive cells; assay: Candidate based PE screen 1 (compounds in basal medium without bFGF, first eight days); conditions: compared to benchmark protocol (Ameri et al, 2010); hiPSC and hESC; FIG. 5
Description: Pluripotent stem (PS) cells were differentiated into definitive endoderm according to DE protocol (See general methods) and seeded in 96 well plates for screening. The pancreatic endoderm screen was divided into two parts. In screen 1, compounds were added to a basal medium (RPMI1640+0.1% PEST+12% KOSR) the first eight days of PE differentiation. Compounds were tested in 4 different time windows having 2 day increments and then cells were left to continue differentiation for another six days in the bFGF based published protocol (Ameri et al., 2010). In screen 2, cells were first differentiated for 4 days with the hit compounds from screen 1, then screening compounds were added the last 10 days to basal medium.
Human embryonic stem (hES) cells line SA121 and human induced pluripotent stem cells (hiPSC) chIPS4 (Cellectis) were grown in DEF-CS culture media (Cellectis) in T75 culture flasks. […]
Imaging was performed using the InCell Analyzer 2000 (GE Healthcare). […] The total cell number based in the DAPI counterstaining and the number of NKX6.1/PDX1 double positive cells was determined using InCell Developer Toolbox 1.8 (GE Healthcare). The fraction of NKX6.1/PDX1 double positive cells was normalized to the benchmark on each plate and the % effect was calculated. […]

SMILES | hit concentration (Concentration) [1] | also measured
O=c1cc(-c2cccc3c2Sc2ccccc2S3)oc(N2CCOCC2)c1 [ATM Kinase Inhibitor] | 10 µM | 
NC(=O)c1ccc2[nH]c(-c3ccc(Oc4ccc(Cl)cc4)cc3)nc2c1 [Chk2 Inhibitor II] | 10 µM | 
CC1=C2C[C@H]3[C@@H](CC=C4C[C@@H](O)CC[C@@]43C)[C@@H]2CC[C@]12O[C@@H]1C[C@H](C)CN[C@H]1[C@H]2C [Cyclopamine] |  | hit identification, candidate screen 2 [2]: hit compounds
Cc1ccc2nc(NC(=O)CSc3nc4c(c(=O)n3-c3ccccc3)SCC4)sc2c1 [IWP2] |  | hit identification, candidate screen 2 [2]: hit compounds
c1ccc2c(-c3cnn4cc(-c5ccc(N6CCNCC6)cc5)cnc34)ccnc2c1 [LDN-193189] |  | hit identification and most effective time window, candidate screen 1 [3]: most effective when added for the first 4 days followed by 4 days basal medium
Fc1ccc(-c2nc3n(c2-c2ccncc2)CCS3)cc1 [SKF-86002] | 10 µM | 
COc1ccc(-c2cnc3c(-c4ccsc4)cnn3c2)cc1 [VEGF Receptor 2 Kinase Inhibitor IV] | 10 µM | 
